Legend:
HeLa cells = experiment: Cytoprotection of HeLa cells from Tunicamycin (ER) stress; type: cell-based; settings: 250 ng/ml Tunicamycin, 72 h
Description: HeLa cells (40,000 cells/ml) were plated in a 96-well plate and treated with different concentrations of compound, as indicated, or DMSO vehicle in the presence of 250 ng/ml Tunicamycin for 72 h. To monitor cell death, 1/2000 dilution of the CellTox green dye (Promega) was added to the media. The growth of the cells was monitored over time and pictures taken every 2 h with the IncuCyte ZOOM system and analysed by the IncuCyte ZOOM software (Essen BioScience). To compare different compounds and their cytoprotective effect, a growth ratio for each time point was calculated:
Growth ratio=(Phase confluency (%) at X hours)/(Phase confluency (%) at 0 hours)
The end point of the assay (72 h) was chosen for generating the graphs.

R15B-PP1c = biological target: T1, R15B-PP1c (Homo sapiens, UniProt Q5SWA1); experiment: In vitro dephosphorylation of P-eIF2α by recombinant R15B-PP1c holophosphatase (10 nM PP1c); type: biochemical; settings: PP1c 10 nM, 1 μM P-eIF2α, compounds 100 μM, 30° C., 16 h
T1 construct: PPP1R15B amino acids 340-698 (R15B); His6 (C); made in house; host or cells: E. coli BL21 pLysS (R15B, eIF2α); E. coli BL21/pGro7 (PP1c)
Description: (§1) PP1c was diluted to the appropriate concentration (as indicated in the figure legends) in dephosphorylation buffer immediately prior to use. Dephosphorylation reactions were carried out by pre-incubating diluted PP1c in the presence or absence of regulatory subunits (either […]), and/or compounds (all at 100 μM, except for Salubrinal which was used at 30 μM), for 15′ at RT. All compounds were diluted in DMSO, and DMSO vehicle was used in all control experiments.
(§2) The reaction was initiated by the addition of 1 μM P-eIF2α or ^33P Phosphorylase a substrates and then incubated at 30° C. for 16 h with shaking at 350 rpm. Reactions were stopped by addition of 4× Laemmli sample buffer. eIF2α samples were analyzed by immunoblotting or Phos-tag gels. P-eIF2α dephosphorylation was analysed by immunoblotting using anti-Phospho-eIF2α (SerS1) (#9721) (Cell Signaling) and anti-eIF2α (ab26197) (AbCam) antibodies. Samples in FIG. 8 and FIG. 16 were run on a 15% SuperSep Phos-tag acrylamide gel (Alpha Laboratories) and visualized by staining with InstantBlue Protein Stain.

R15A [1] = biological target: T2, R15A (Homo sapiens, UniProt O75807); experiment: Light scattering to monitor aggregation of R15A; settings: 5 μM R15A, 10 min, 20° C.
T2 construct: PPP1R15A amino acids 325-636 (R15A); His6 (C); made in house; host or cells: E. coli BL21 pLysS
Description: Samples were incubated for 10 min at RT. […] Therefore, light scattering was measured at 380 nm emission, 380 nm absorption to monitor the presence of aggregates. For each sample, 100 data points were collected over a period of 10 min, at 20° C., with constant stirring.

R15B = biological target: T3, R15B (Homo sapiens, UniProt Q5SWA1); experiment: Limited trypsin proteolysis of R15B (conformational change); settings: 100 μM compound, 0.5 μM R15B, 2.5 nM trypsin, 30 min to 3 h, 22° C.
T3 construct: PPP1R15B amino acids 340-698 (R15B); His6 (C); made in house; host or cells: E. coli BL21 pLysS
T3 sequence (Q5SWA1 340-698): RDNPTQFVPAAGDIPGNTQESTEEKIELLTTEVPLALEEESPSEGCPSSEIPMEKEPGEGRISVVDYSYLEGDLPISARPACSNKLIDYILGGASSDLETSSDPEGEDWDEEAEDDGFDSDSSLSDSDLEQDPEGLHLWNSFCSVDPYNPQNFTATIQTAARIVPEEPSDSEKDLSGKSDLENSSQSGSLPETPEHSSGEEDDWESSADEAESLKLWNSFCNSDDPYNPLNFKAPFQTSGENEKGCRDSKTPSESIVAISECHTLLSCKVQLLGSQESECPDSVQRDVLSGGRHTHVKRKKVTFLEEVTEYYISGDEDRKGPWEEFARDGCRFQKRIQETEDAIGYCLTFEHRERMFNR
Description: (§3) Reactions were allowed to proceed at 22° C. with shaking at 350 rpm. At time points 30 min, 1 h, 2 h or 3 h, 30 μl of sample was removed from the mix and digestion was stopped by addition of 10 μl of 16% SDS Laemmli sample buffer. Samples were run on 4-12% NuPAGE Bis-Tris gels (Life Technologies). Proteins were visualised by staining with InstantBlue Coomassie Protein Stain (Expedeon) protein stain.
(§4) Purified R15A and R15B were diluted to 3 μM in PBS, and incubated for 15′ at RT with 100 μM Raphin1, or DMSO vehicle. Reactions were initiated by addition of 5 nM of trypsin from bovine pancreas (Sigma), made up in PBS, and allowed to proceed for 5′ at 22° C., with shaking at 350 rpm. Digestion was stopped by addition of 4× Laemmli sample buffer and samples were run on 4-12% NuPAGE Bis-Tris gels (Life Technologies). Proteins were visualised by staining with InstantBlue Protein Stain.

R15A-PP1c = biological target: T4, R15A-PP1c (Homo sapiens, UniProt O75807); experiment: In vitro dephosphorylation of P-eIF2α by recombinant R15A-PP1c holophosphatase (10 nM PP1c); type: biochemical; settings: PP1c 10 nM, 1 μM P-eIF2α, compounds 100 μM, 30° C., 16 h
T4 construct: PPP1R15A amino acids 325-636 (R15A); His6 (C); made in house; host or cells: E. coli BL21 pLysS (R15A, eIF2α); E. coli BL21/pGro7 (PP1c)
Description: as §1
as §2, with “P-eIF2α dephosphorylation was analysed by immunoblotting using anti-Phospho-eIF2α (SerS1) (#9721) (Cell Signaling) and anti-eIF2α (ab26197) (AbCam) antibodies.” left out

R15A [2] = biological target: T2, R15A; experiment: Limited trypsin proteolysis of R15A (conformational change); settings: 100 μM compound, 0.5 μM R15A, 2.5 nM trypsin, 30 min to 3 h, 22° C.
Description: as §3, §4

PP1c = biological target: T5, PP1c (Homo sapiens, UniProt P62136); experiment: Dephosphorylation of P-eIF2α by increasing amounts of PP1c alone; type: biochemical; settings: compound 100 μM, 30° C., 16 h
T5 construct: The cDNA encoding amino acids 7-330 of human PP1cα; made in house; host or cells: E. coli BL21/pGro7 (PP1c); E. coli BL21 pLysS (eIF2α)
Description: as §1
as §2, with “P-eIF2α dephosphorylation was analysed by immunoblotting using anti-Phospho-eIF2α (SerS1) (#9721) (Cell Signaling) and anti-eIF2α (ab26197) (AbCam) antibodies.” left out

eIF2α = experiment: Thermophoresis affinity measurement, binding to labelled P-eIF2α; set-up: species or system human
Description: Thermophoresis experiments were performed using a Monolith NT.115 instrument (NanoTemper Technologies). PP1c and P-eIF2α proteins were labeled using the Monolith NT Protein labelling Kit Red-NHS and stored for no longer than a month at −80° C. For thermophoresis, all protein dilutions were carried out in MST buffer (50 mM HEPES (pH 7.4), 100 mM NaCl, 0.1% Tween20, 2 mM MnCl2). Labelled proteins (100 nM) were mixed with equal volumes of serial dilutions of the unlabelled binding partner. In holophosphatase binding experiments, labelled P-eIF2 was diluted to 100 nM in MST buffer containing 10 μM regulatory subunit and then mixed as above with titrations of unlabelled PP1c. All experiments were carried out in enhanced grade capillaries, using 100% LED power and 100% IR-laser (on for 25 seconds (″)) at 20° C. NanoTemper Analysis 1.2.101 software was used to fit the data with a nonlinear solution of the law of mass action and KD values were determined. Each measurement was repeated in three independent experiments and KD values were averaged. Standard error of the mean (SEM) values are shown.

T2 sequence (O75807 325-636, stated change not applied): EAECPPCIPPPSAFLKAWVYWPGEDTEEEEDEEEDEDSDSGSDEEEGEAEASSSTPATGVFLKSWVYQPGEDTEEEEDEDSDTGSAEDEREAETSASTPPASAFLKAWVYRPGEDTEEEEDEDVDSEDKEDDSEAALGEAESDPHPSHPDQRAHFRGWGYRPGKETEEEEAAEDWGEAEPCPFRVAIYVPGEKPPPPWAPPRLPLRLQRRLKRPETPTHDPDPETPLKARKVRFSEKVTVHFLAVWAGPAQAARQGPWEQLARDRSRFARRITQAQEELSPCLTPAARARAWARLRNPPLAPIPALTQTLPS
T1 sequence (P62136 7-330 partner limits assumed, one chain of several): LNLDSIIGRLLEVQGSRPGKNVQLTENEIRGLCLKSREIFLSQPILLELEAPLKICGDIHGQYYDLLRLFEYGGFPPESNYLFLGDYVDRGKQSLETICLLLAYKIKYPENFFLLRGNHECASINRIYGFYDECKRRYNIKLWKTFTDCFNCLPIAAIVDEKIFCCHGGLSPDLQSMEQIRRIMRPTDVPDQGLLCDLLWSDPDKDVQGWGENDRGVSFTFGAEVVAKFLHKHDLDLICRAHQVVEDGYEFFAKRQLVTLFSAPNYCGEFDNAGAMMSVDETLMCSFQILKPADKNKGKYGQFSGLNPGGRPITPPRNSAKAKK
T4 sequence (O75807 325-636, stated change not applied): as the sequence (O75807 325-636, stated change not applied) above
T4 sequence (P62136 7-330 partner): as the sequence (P62136 7-330 partner limits assumed, one chain of several) above
T5 sequence (P62136 7-330): as the sequence (P62136 7-330 partner limits assumed, one chain of several) above

N=C(N)N/N=C/c1ncccc1Cl [C3, (E)-2-((3-chloropyridin-2-yl)methylene)hydrazine-1-carboximidamide]
cytoprotection from ER stress (HeLa cells): inactive | inhibition of R15B-PP1c eIF2α holophosphatase (R15B-PP1c): did not inhibit R15A-PP1 or R15B-PP1 | aggregation of R15A (light scattering at 380 nm) (R15A [1]; 1 mM compound): No aggregation | sensitivity of R15B to trypsin proteolysis (R15B): did not alter the protease sensitivity | inhibition of R15A-PP1c eIF2α holophosphatase (R15A-PP1c): did not inhibit R15A-PP1 or R15B-PP1 | sensitivity of R15A to trypsin proteolysis (R15A [2]): did not alter the protease sensitivity

O=C(/C=C/c1ccccc1)NC(NC(=S)Nc1cccc2cccnc12)C(Cl)(Cl)Cl (stereo not shown) [Salubrinal]
aggregation of R15A (light scattering at 380 nm) (R15A [1]; 50 μM compound): induced robust aggregation | inhibition of PP1c alone (PP1c): inhibited PP1c

PP1c^D95A: catalytically inactive D95A mutant of human PP1cα (amino acids 7-330)
Kd (eIF2α; 20° C.): ~0.65 µM

R15B-PP1c^D95A: holophosphatase complex of R15B (PPP1R15B 340-698) with PP1c^D95A
affinity for eIF2α relative to isolated PP1c^D95A (eIF2α; 10 μM regulatory subunit): 3.0 times higher

Source: patent publication US20200199647A1, “ASSAY FOR SCREENING MODULATORS OF HOLOPHOSPHATASE ACTIVITY” (UNITED KINGDOM RESEARCH AND INNOVATION, priority 2017, published 2020)
